Data: ChEMBL document CHEMBL1201862, “PubChem BioAssay data set” (2004)
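How tested: cells in 96-well plates exposed to compound for 48 hours at five concentrations. GI50 is the concentration that inhibits growth by half.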 Active and inactive are the calls of the source. Rule as the data show it: active = GI50 up to about 1.1 µM and inactive = higher.

Experiments:
Test in all cases: NCI-60 cell line screen, 48 h
Malme-3M = tested on: Malme-3M
U-251 = tested on: U-251
MCF7 = tested on: MCF7
SF-539 = tested on: SF-539
SR = tested on: SR
DU-145 = tested on: DU-145
HOP-62 = tested on: HOP-62
HOP-92 = tested on: HOP-92
EKVX = tested on: EKVX
IGROV-1 = tested on: IGROV-1
OVCAR-3 = tested on: OVCAR-3
RPMI-8226 = tested on: RPMI-8226
UACC-62 = tested on: UACC-62
COLO 205 = tested on: COLO 205
MDA-MB-435 = tested on: MDA-MB-435
HCT-116 = tested on: HCT-116
NCI-H460 = tested on: NCI-H460
NCI-H23 = tested on: NCI-H23
CAKI-1 = tested on: CAKI-1
SF-268 = tested on: SF-268
OVCAR-5 = tested on: OVCAR-5
BT-549 = tested on: BT-549
HT-29 = tested on: HT-29
NCI/ADR-RES = tested on: NCI/ADR-RES
OVCAR-4 = tested on: OVCAR-4
PC-3 = tested on: PC-3
MDA-MB-231 = tested on: MDA-MB-231
SN12C = tested on: SN12C
SK-MEL-5 = tested on: SK-MEL-5
MOLT-4 = tested on: MOLT-4
NCI-H226 = tested on: NCI-H226
Hs-578T = tested on: Hs-578T
KM12 = tested on: KM12
LOX IMVI = tested on: LOX IMVI
A498 = tested on: A498
SW-620 = tested on: SW-620
SNB-19 = tested on: SNB-19
SNB-75 = tested on: SNB-75
NCI-H522 = tested on: NCI-H522
OVCAR-8 = tested on: OVCAR-8
SK-OV-3 = tested on: SK-OV-3
786-0 = tested on: 786-0
CCRF-CEM = tested on: CCRF-CEM
TK-10 = tested on: TK-10
MDA-N = tested on: MDA-N
SK-MEL-2 = tested on: SK-MEL-2
UACC-257 = tested on: UACC-257
RXF 393 = tested on: RXF 393
UO-31 = tested on: UO-31
HCT-15 = tested on: HCT-15
SK-MEL-28 = tested on: SK-MEL-28
SF-295 = tested on: SF-295
M14 = tested on: M14
ACHN = tested on: ACHN
K562 = tested on: K562
HL-60 = tested on: HL-60
A549 = tested on: A549
T47D = tested on: T47D

For O=C(O)c1nnsc1-c1csnn1, the GI50 (Malme-3M) was > 100 µM (inactive), the GI50 (U-251) was > 100 µM (inactive) and the GI50 (MCF7) was > 100 µM (inactive). The GI50 (SF-539) was > 100 µM (inactive), the GI50 (SR) was 54.6 µM (inactive) and the GI50 (DU-145) was > 100 µM (inactive). The GI50 (HOP-62) was > 100 µM (inactive), the GI50 (HOP-92) was > 100 µM (inactive) and the GI50 (EKVX) was > 100 µM (inactive). For the same compound, the GI50 (IGROV-1) was > 100 µM (inactive), the GI50 (OVCAR-3) was > 100 µM (inactive) and the GI50 (RPMI-8226) was > 100 µM (inactive). For the same compound, the GI50 (UACC-62) was > 100 µM (inactive), the GI50 (COLO 205) was > 100 µM (inactive) and the GI50 (MDA-MB-435) was > 100 µM (inactive). The GI50 (HCT-116) was > 100 µM (inactive), the GI50 (NCI-H460) was > 100 µM (inactive) and the GI50 (NCI-H23) was > 100 µM (inactive). The GI50 (CAKI-1) was > 100 µM (inactive), the GI50 (SF-268) was > 100 µM (inactive) and the GI50 (OVCAR-5) was > 100 µM (inactive). The GI50 (BT-549) was > 100 µM (inactive), the GI50 (HT-29) was > 100 µM (inactive) and the GI50 (NCI/ADR-RES) was > 100 µM (inactive). For the same compound, the GI50 (OVCAR-4) was > 100 µM (inactive), the GI50 (PC-3) was > 100 µM (inactive) and the GI50 (MDA-MB-231) was > 100 µM (inactive). The GI50 (SN12C) was > 100 µM (inactive), the GI50 (SK-MEL-5) was > 100 µM (inactive) and the GI50 (MOLT-4) was > 100 µM (inactive). The GI50 (NCI-H226) was > 100 µM (inactive), the GI50 (Hs-578T) was > 100 µM (inactive) and the GI50 (KM12) was > 100 µM (inactive). For the same compound, the GI50 (LOX IMVI) was > 100 µM (inactive), the GI50 (A498) was > 100 µM (inactive) and the GI50 (SW-620) was > 100 µM (inactive). For the same compound, the GI50 (SNB-19) was > 100 µM (inactive), the GI50 (SNB-75) was > 100 µM (inactive) and the GI50 (NCI-H522) was > 100 µM (inactive). For the same compound, the GI50 (OVCAR-8) was > 100 µM (inactive), the GI50 (SK-OV-3) was > 100 µM (inactive) and the GI50 (786-0) was > 100 µM (inactive). For the same compound, the GI50 (CCRF-CEM) was > 100 µM (inactive), the GI50 (TK-10) was 74.8 µM (inactive) and the GI50 (MDA-N) was > 100 µM (inactive). For the same compound, the GI50 (SK-MEL-2) was > 100 µM (inactive), the GI50 (UACC-257) was > 100 µM (inactive) and the GI50 (RXF 393) was > 100 µM (inactive). For the same compound, the GI50 (UO-31) was > 100 µM (inactive), the GI50 (HCT-15) was over 100 µM and the GI50 (SK-MEL-28) was > 100 µM (inactive). For the same compound, the GI50 (SF-295) was > 100 µM (inactive), the GI50 (M14) was > 100 µM (inactive) and the GI50 (ACHN) was > 100 µM (inactive). The GI50 (K562) was > 100 µM (inactive), the GI50 (HL-60) was > 100 µM (inactive) and the GI50 (A549) was > 100 µM (inactive). The GI50 (T47D) was > 100 µM (inactive).
In the case of CC1(C)CCN2C(=O)C34CCCC3CC21S4 (centres undefined), the GI50 (Malme-3M) is reported as > 100 µM (inactive), the GI50 (U-251) is reported as > 100 µM (inactive) and the GI50 (MCF7) is reported as > 100 µM (inactive). For the same compound, the GI50 (SF-539) was > 100 µM (inactive), the GI50 (SR) was > 100 µM (inactive) and the GI50 (DU-145) was > 100 µM (inactive). The GI50 (HOP-62) was > 100 µM (inactive), the GI50 (HOP-92) was > 100 µM (inactive) and the GI50 (EKVX) was > 100 µM (inactive). For the same compound, the GI50 (IGROV-1) was > 100 µM (inactive), the GI50 (OVCAR-3) was > 100 µM (inactive) and the GI50 (RPMI-8226) was > 100 µM (inactive). For the same compound, the GI50 (UACC-62) was > 100 µM (inactive), the GI50 (COLO 205) was > 100 µM (inactive) and the GI50 (MDA-MB-435) was > 100 µM (inactive). For the same compound, the GI50 (HCT-116) was > 100 µM (inactive), the GI50 (NCI-H23) was > 100 µM (inactive) and the GI50 (CAKI-1) was > 100 µM (inactive). The GI50 (SF-268) was > 100 µM (inactive), the GI50 (OVCAR-5) was > 100 µM (inactive) and the GI50 (BT-549) was > 100 µM (inactive). The GI50 (HT-29) was > 100 µM (inactive), the GI50 (NCI/ADR-RES) was > 100 µM (inactive) and the GI50 (OVCAR-4) was > 100 µM (inactive). For the same compound, the GI50 (PC-3) was > 100 µM (inactive), the GI50 (MDA-MB-231) was > 100 µM (inactive) and the GI50 (SN12C) was > 100 µM (inactive). For the same compound, the GI50 (SK-MEL-5) was > 100 µM (inactive), the GI50 (MOLT-4) was > 100 µM (inactive) and the GI50 (NCI-H226) was > 100 µM (inactive). The GI50 (Hs-578T) was > 100 µM (inactive), the GI50 (KM12) was > 100 µM (inactive) and the GI50 (LOX IMVI) was > 100 µM (inactive). The GI50 (A498) was > 100 µM (inactive), the GI50 (SW-620) was > 100 µM (inactive) and the GI50 (SNB-19) was > 100 µM (inactive). The GI50 (NCI-H522) was > 100 µM (inactive), the GI50 (OVCAR-8) was > 100 µM (inactive) and the GI50 (SK-OV-3) was > 100 µM (inactive). For the same compound, the GI50 (786-0) was > 100 µM (inactive), the GI50 (CCRF-CEM) was 78 µM (inactive) and the GI50 (TK-10) was > 100 µM (inactive). For the same compound, the GI50 (MDA-N) was > 100 µM (inactive), the GI50 (SK-MEL-2) was > 100 µM (inactive) and the GI50 (UACC-257) was > 100 µM (inactive). For the same compound, the GI50 (RXF 393) was > 100 µM (inactive), the GI50 (UO-31) was > 100 µM (inactive) and the GI50 (HCT-15) was over 100 µM. For the same compound, the GI50 (SK-MEL-28) was > 100 µM (inactive), the GI50 (SF-295) was > 100 µM (inactive) and the GI50 (M14) was > 100 µM (inactive). The GI50 (ACHN) was > 100 µM (inactive), the GI50 (K562) was > 100 µM (inactive) and the GI50 (HL-60) was > 100 µM (inactive). The GI50 (A549) was > 100 µM (inactive) and the GI50 (T47D) was > 100 µM (inactive).
